Test results reported in US8916716B2, “Process for the preparation of crystalline form II of L-malic acid salt of sunitinib” (Ranbaxy Laboratories Limited, priority 2009, dated 2014).

Tests used:
[1] = Solid form stability on storage, followed by XRPD; type: physicochemical; conditions: storage for about 20 days or more
Description: The XRPD of the samples were determined by using Panalytical X'Pert Pro X-Ray Powder Diffractometer in the range 3-40 degree 2 theta and under tube voltage and current of 45 Kv and 40 mA respectively. Copper radiation of wavelength 1.54 angstrom and Xceletor detector was used.
The solvent was evaporated at a temperature of about 60° C. to about 65° C. through spray drying.

[2] = Moisture content by KF, initial and after storage; type: physicochemical
[3] = described in WO 2009/104021; cited from earlier work

Row | Structure (SMILES) | conversion into any other solid form on storage [1] | Moisture content by KF ([2]; after storage at 20° C. to 25° C. for 60 days) [%] | moisture absorbed (level) ([2]; general statement on the stable Form II) | Moisture content by KF ([2]; initial) [%] | conversion to another crystal form [3] | hygroscopicity [3] | thermodynamic stability [3]
1 | CCN(CC)CCNC(=O)c1c(C)[nH]c(/C=C2\C(=O)Nc3ccc(F)cc32)c1C [Example 1, butanedioic acid, hydroxy-, (2S)—, compound with N-[2-(diethylamino)ethyl]-5-[(Z)-(5-fluoro-1,2-dihydro-2-oxo-3H-indol-3-ylidine)methyl]-2,4-dimethyl-1H-pyrrole-3-carboxamide (1:1)] | does not convert into any other solid form | 5.52 | not more than 2% | 4.48 |  |  | 
2 | CCN(CC)CCNC(=O)c1c(C)[nH]c(/C=C2\C(=O)Nc3ccc(F)cc32)c1C [Form II of sunitinib L-malate, butanedioic acid, hydroxy-, (2S)—, compound with N-[2-(diethylamino)ethyl]-5-[(Z)-(5-fluoro-1,2-dihydro-2-oxo-3H-indol-3-ylidine)methyl]-2,4-dimethyl-1H-pyrrole-3-carboxamide (1:1)] |  |  |  |  | appears to readily convert to Form I | hygroscopic | thermodynamically unstable
